Test results reported in patent US20190119282A1, “IMIDAZOPYRIDAZINES USEFUL AS INHIBITORS OF THE PAR-2 SIGNALING PATHWAY” (Vertex Pharmaceuticals Incorporated, priority 2013, published 2019).

Experiments:
[1] = biological target: T1, PAR2 (HT-29 cells, SLIGKV activation) (Homo sapiens, UniProt P55085); experiment: Ca FLIPR TETRA assay, ANTAGONIST mode, stimulation with 8 μM SLIGKV; type: cell-based; conditions: for IC50: HT-29 cells
T1 construct: host or cells: HT-29 cells
T1 sequence (P55085 26-397): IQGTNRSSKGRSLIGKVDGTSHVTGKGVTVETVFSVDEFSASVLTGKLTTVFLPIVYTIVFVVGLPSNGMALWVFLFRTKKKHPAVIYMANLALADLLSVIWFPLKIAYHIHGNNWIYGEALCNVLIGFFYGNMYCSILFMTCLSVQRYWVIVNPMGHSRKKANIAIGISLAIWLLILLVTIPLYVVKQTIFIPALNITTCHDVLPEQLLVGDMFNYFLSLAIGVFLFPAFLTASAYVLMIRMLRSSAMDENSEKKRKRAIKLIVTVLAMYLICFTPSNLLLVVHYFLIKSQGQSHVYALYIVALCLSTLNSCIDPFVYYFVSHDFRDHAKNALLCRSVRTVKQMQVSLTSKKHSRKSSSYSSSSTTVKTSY
Method in brief: (§1)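 Antagonist-mode assay: dye-loaded HT-29 cells, compound 30 min at r.t., then stimulated with final 8 μM SLIGKV, 3.1 U/mL trypsin, 1 U/mL thrombin or 0.6 μM UTP; calcium fluorescence read.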

[2] = biological target: T2, PAR2 (HT-29 cells, trypsin activation) (Homo sapiens, UniProt P55085); experiment: Ca FLIPR TETRA assay, ANTAGONIST mode, stimulation with 3.1 U/mL trypsin; type: cell-based; conditions: HT-29 cells
T2 construct: host or cells: HT-29 cells
T2 sequence (P55085 26-397): T1 sequence (P55085 26-397)
Method in brief: as §1

[3] = test system: Thrombin-stimulated Ca2+ response in HT-29 cells; experiment: Ca FLIPR TETRA assay, ANTAGONIST mode, stimulation with 1 U/mL Thrombin; type: cell-based, human; conditions: Homo sapiens, HT-29 cells
Method in brief: as §1

[4] = test system: UTP-stimulated Ca2+ response in HT-29 cells; experiment: Ca FLIPR TETRA assay, ANTAGONIST mode, stimulation with 0.6 μM UTP; type: cell-based, human; conditions: Homo sapiens, HT-29 cells
Method in brief: as §1

[5] = antagonist mode, stimulation with 8 μM SLIGKV
[6] = antagonist mode, stimulation with 3.1 U/mL trypsin
[7] = antagonist mode, stimulation with 1 U/mL Thrombin
[8] = antagonist mode, stimulation with 0.6 μM UTP
[9] = stimulation with 3.1 U/mL trypsin
[10] = stimulation with 1 U/mL Thrombin

| Compound | IC50 [1, 5] | IC50 [2, 6] | IC50 [3, 7] | IC50 [4, 8] | other results |
| --- | --- | --- | --- | --- | --- |
| Cc1cc(-c2ccc(F)cc2)nn2cc(C(=O)N3CCC(C#N)CC3)nc12 [Compound I-60] | – | – | – | – | IC50 ([1]; stimulation with 8 μM SLIGKV): 7900 nM; IC50 [2, 9]: 14000 nM; IC50 [3, 10]: 32000 nM; IC50 ([4]; stimulation with 0.6 μM UTP): 40000 nM |
| CC(C)c1cc(-c2ccc(F)cc2)nn2cc(C(=O)N3CCN(C(=O)OC(C)(C)C)CC34COC4)nc12 [Compound I-23, tert-butyl 5-[6-(4-fluorophenyl)-8-isopropyl-imidazo[1,2-b]pyridazine-2-carbonyl]-2-oxa-5,8-diazaspiro[3.5]nonane-8-carboxylate] | – | – | – | – | IC50 ([1]; stimulation with 8 μM SLIGKV): 130 nM; IC50 [2, 9]: 300 nM; IC50 [3, 10]: > 50000 nM; IC50 ([4]; stimulation with 0.6 μM UTP): > 50000 nM |
| CC(C)c1cc(-c2ccc(C(F)F)cc2)nn2cc(C(=O)N3CCN(C(=O)c4cn[nH]c4)CC3(C)C)nc12 [Compound I-295] | 7.5 nM | 8.3 nM | > 1000 nM | > 1000 nM | – |
| CC(C)c1cc(-c2ccc(F)cc2)nn2cc(C(=O)N3CCN(CC(C)(C)O)C(=O)C3(C)C)nc12 [Compound I-180] | – | – | – | – | IC50 ([1]; stimulation with 8 μM SLIGKV): 32 nM; IC50 [2, 9]: 41 nM; IC50 [3, 10]: > 50000 nM; IC50 ([4]; stimulation with 0.6 μM UTP): 18000 nM |
| Cc1cc(-c2cc(C(C)C)c3nc(C(=O)N4CCN(C(=O)[C@H]5C[C@](O)(C(F)(F)F)C5)CC4(C)C)cn3n2)ccc1F [Compound I-260] | 0.7 nM | 1.1 nM | > 100 nM | > 100 nM | – |
| CC(C)(C)c1cc(-c2ccc(F)cc2)nn2cc(C(=O)N3CCN(C(=O)c4ccncn4)CC3(C)C)nc12 [Compound I-231] | 1.1 nM | 1.6 nM | > 1000 nM | > 1000 nM | – |
| CC(C)c1cc(-c2ccc(F)cc2)nn2cc(C(=O)N3CCN(C(=O)CC4CCCCC4)[C@@H](C)C3)nc12 [Compound I-128] | – | – | – | – | IC50 ([1]; stimulation with 8 μM SLIGKV): 2 nM; IC50 [2, 9]: 2 nM; IC50 [3, 10]: 30000 nM; IC50 ([4]; stimulation with 0.6 μM UTP): 31000 nM |
| O=C(c1cn2nc(-c3ccc(F)cc3)cc(C(F)(F)F)c2n1)N1CCN(C(=O)N2CCCCC2)CC1 [Compound I-50] | – | – | – | – | SLIGKV % @ concentration ([1]; @ 1.9 (μM)): 44% @ 1.9; IC50 [2, 9]: 27000 nM; IC50 [3, 10]: > 50000 nM; IC50 ([4]; stimulation with 0.6 μM UTP): > 50000 nM |
| C[C@H]1CN(C(=O)c2cn3nc(-c4ccc(F)cc4)cc(C(F)(F)F)c3n2)CCN1C(=O)Cc1ccccc1 [Compound I-90] | – | – | – | – | IC50 ([1]; stimulation with 8 μM SLIGKV): 15 nM; IC50 [2, 9]: 44 nM; IC50 [3, 10]: > 5000 nM; IC50 ([4]; stimulation with 0.6 μM UTP): > 5000 nM |
| CC1(C)CN(C(=O)C2(O)CCOCC2)CCN1C(=O)c1cn2nc(-c3ccc(F)cc3)cc(C(F)(F)F)c2n1 [Compound I-38, [6-(4-Fluorophenyl)-8-(trifluoromethyl)imidazo[1,2-b]pyridazin-2-yl]-[4-(4-hydroxytetrahydropyran-4-carbonyl)-2,2-dimethyl-piperazin-1-yl]methanone] | – | – | – | – | IC50 ([1]; stimulation with 8 μM SLIGKV): 390 nM; IC50 [2, 9]: 480 nM; IC50 [3, 10]: > 50000 nM; IC50 ([4]; stimulation with 0.6 μM UTP): > 45000 nM |
| Cc1ccc(-c2cc(C(C)C)c3nc(C(=O)N4CCN(C(=O)C(C)(C)O)CC4(C)C)cn3n2)cc1F [Compound I-251] | 5.8 nM | 16.6 nM | > 1000 nM | > 1000 nM | – |
| CC(C)(CC(=O)O)C(=O)N1CCN(C(=O)c2cn3nc(-c4ccc(F)cc4)cc(C(C)(C)C)c3n2)C(C)(C)C1 [Compound I-571] | – | – | – | – | IC50 ([1]; antagonist mode, 8 μM SLIGKV): 1.1 nM; IC50 ([2]; antagonist mode, 3.1 U/mL trypsin): 3.3 nM; IC50 ([3]; antagonist mode, 1 U/mL Thrombin): 980 nM; IC50 ([4]; antagonist mode, 0.6 μM UTP): > 1000 nM |
| C[C@H]1CN(C(=O)c2cn3nc(-c4ccc(F)cc4)cc(C(F)(F)F)c3n2)CCN1C(=O)OCC(C)(C)C [Compound I-82] | – | – | – | – | IC50 ([1]; stimulation with 8 μM SLIGKV): 22 nM; IC50 [2, 9]: 100 nM; IC50 [3, 10]: 14000 nM; IC50 ([4]; stimulation with 0.6 μM UTP): 22000 nM |
| C[C@H]1CN(C(=O)c2cn3nc(-c4ccc(F)cc4)cc(C(F)(F)F)c3n2)CCN1C(=O)C1CCCCC1 [Compound I-86] | – | – | – | – | IC50 ([1]; stimulation with 8 μM SLIGKV): 78 nM; IC50 [2, 9]: 600 nM; IC50 [3, 10]: 35000 nM; IC50 ([4]; stimulation with 0.6 μM UTP): 37000 nM |
| CCc1cc(-c2ccc(F)cc2)nn2cc(C(=O)N3CCN(C(=O)[C@H](O)C(C)C)[C@@H](C)C3)nc12 [Compound I-168] | – | – | – | – | IC50 ([1]; stimulation with 8 μM SLIGKV): 67 nM; IC50 [2, 9]: 350 nM; IC50 [3, 10]: 16000 nM; IC50 ([4]; stimulation with 0.6 μM UTP): 13000 nM |
| CC(C)c1cc(-c2ccc(C(F)(F)F)c(F)c2)nn2cc(C(=O)N3CCN(C(=O)c4ccncn4)CC3(C)C)nc12 [Compound I-278] | 2.1 nM | 2.8 nM | > 1000 nM | > 1000 nM | – |
| CC(C)c1cc(-c2ccc(F)cc2)nn2cc(C(=O)N3CCN(C#N)C(=O)C3(C)C)nc12 [Compound I-274] | 2.6 nM | 4.6 nM | > 1000 nM | > 1000 nM | – |

More lines, main results first:

| IC50 [1, 5] | IC50 [2, 6] | IC50 [3, 7] | IC50 [4, 8] | Compound | other results |
| --- | --- | --- | --- | --- | --- |
| 109 nM | 150 nM | > 1000 nM | > 1000 nM | Cc1cc(-c2cc(C(C)C)c3nc(C(=O)N4CN(Cc5ccccc5)C(=O)C4(C)C)cn3n2)ccc1F [Compound I-442, 3-benzyl-1-[6-(4-fluoro-3-methyl-phenyl)-8-isopropyl-imidazo[1,2-b]pyridazine-2-carbonyl]-5,5-dimethyl-imidazolidin-4-one] | – |
| 17.5 nM | 19 nM | > 1000 nM | > 1000 nM | CC(C)c1cc(-c2ccc(F)cc2)nn2cc(C(=O)N3CCN(C(=O)c4cccnc4)CC3(C)C)nc12 [Compound I-309] | – |
| 1.7 nM | 2.6 nM | > 1000 nM | > 1000 nM | Cc1cc(-c2cc(C(C)(C)C)c3nc(C(=O)N4CCN(C(=O)c5ccccn5)CC4(C)C)cn3n2)ccc1F [Compound I-386] | – |
| 97 nM | 235 nM | > 1000 nM | > 1000 nM | Cc1nc(C(=O)N2CCN(C(=O)c3cn4nc(-c5ccc(F)cc5)cc(C(C)(C)C)c4n3)C(C)(C)C2)nn1COP(=O)(O)O [Compound I-485] | – |
| 773 nM | 1050 nM | > 30000 nM | > 30000 nM | COC(=O)[C@H]1CC[C@@H](C(=O)N2CCN(C(=O)c3cn4nc(C(C)C)cc(C(C)C)c4n3)C(C)(C)C2)CC1 [Compound I-550] | – |
| 52.8 nM | 42 nM | > 1000 nM | > 1000 nM | CC(C)c1cc(-c2ccc(F)cc2)nn2cc(C(=O)N3CCN(C(=O)c4cccnn4)CC3(C)C)nc12 [Compound I-307] | – |
| 9.6 nM | 7 nM | > 1000 nM | > 1000 nM | Cc1cc(C(=O)N2CCN(C(=O)c3cn4nc(-c5ccc(F)cc5)cc(C(C)(F)F)c4n3)C(C)(C)C2)[nH]n1 [Compound I-355] | – |
| 1.8 nM | 4.2 nM | > 1000 nM | > 1000 nM | COC(=O)C(C)(C)CC(=O)N1CCN(C(=O)c2cn3nc(-c4ccc(F)cc4)cc(C(C)(C)C)c3n2)C(C)(C)C1 [Compound I-528] | – |
| 3.8 nM | 7.1 nM | 10300 nM | 13700 nM | Cc1n[nH]c(C(=O)N2CCN(C(=O)c3cn4nc(-c5ccc(F)cc5)cc(C(C)C)c4n3)C(C)(C)C2)n1 [Compound I-475] | – |
| 12 nM | 9.6 nM | > 1000 nM | > 1000 nM | CC1(C)C(=O)NCCN1C(=O)c1cn2nc(-c3ccc(F)cc3)cc(-c3ccc(F)cc3)c2n1 [Compound I-523] | – |
| 3.9 nM | 4.6 nM | > 1000 nM | > 1000 nM | COC(=O)CN1CCN(C(=O)c2cn3nc(-c4ccc(F)cc4)cc(C(C)(C)C)c3n2)C(C)(C)C1=O [Compound I-503] | – |
| 1.3 nM | 1.2 nM | > 1000 nM | > 1000 nM | Cc1cc(-c2cc(C(C)(C)C)c3nc(C(=O)N4CCN(C(=O)c5ccn[nH]5)CC4(C)C)cn3n2)ccc1F [Compound I-381] | – |
| 0.6 nM | 0.8 nM | > 1000 nM | > 1000 nM | Cc1nnc(C(=O)N2CCN(C(=O)c3cn4nc(-c5ccc(Cl)c(F)c5)cc(C(C)(C)C)c4n3)C(C)(C)C2)o1 [Compound I-457] | – |
| 0.5 nM | 0.7 nM | > 1000 nM | > 1000 nM | Cc1cc(C(=O)N2CCN(C(=O)c3cn4nc(-c5ccc(C)c(F)c5)cc(C(C)(C)C)c4n3)C(C)(C)C2)[nH]n1 [Compound I-427] | – |
| 12.5 nM | 15.5 nM | > 1000 nM | > 1000 nM | Cc1cc(-c2cc(C(C)C)c3nc(C(=O)N4CCN(c5c[nH]cn5)C(=O)C4(C)C)cn3n2)ccc1F [Compound I-388] | – |
| 5.2 nM | 6.8 nM | > 1000 nM | > 1000 nM | Cc1ccc(-c2cc(C(C)(C)C)c3nc(C(=O)N4CCN(c5c[nH]c(C)n5)C(=O)C4(C)C)cn3n2)cc1 [Compound I-368] | – |
| 47.2 nM | 44.5 nM | > 1000 nM | > 1000 nM | Cc1nc(C(=O)N2CCN(C(=O)c3cn4nc(-c5ccc(F)cc5)cc(C(C)(C)C)c4n3)C(C)(C)C2)n(COP(=O)(O)O)n1 [Compound I-481] | – |
